In brackets after ≈: the same amount, converted by molar mass.
Legend:
Experiment in all cases: ≥ marks a high value that may be exact or a test limit, other limits are often not marked, values filed in µg/mL are converted to µM
[1] = system: Staphylococcus aureus ATCC 25923
[2] = system: Pseudomonas aeruginosa H103
[3] = system: Salmonella enterica serovar Typhimurium
Candida albicans = system: Candida albicans
Escherichia coli UB1005 = system: Escherichia coli UB1005
[4] = system: Enterococcus faecalis ATCC 29212
[5] = system: Staphylococcus epidermidis
[6] = system: Salmonella typhimurium KCTC 1926
[7] = system: Staphylococcus aureus KCTC 1621
[8] = system: Escherichia coli KCTC 1682
[9] = system: Bacillus subtilis KCTC 3068
[10] = system: Staphylococcus epidermidis KCTC 1917
[11] = system: Pseudomonas aeruginosa KCTC 1637
Escherichia coli BW25113 = system: Escherichia coli BW25113
[12] = system: Escherichia coli ATCC 25726
[13] = system: Candida albicans ATCC 90028
[14] = system: Escherichia coli ATCC 25922

SMILES	MIC [1]	MIC [2]	MIC [3]	MIC (Candida albicans)	MIC (Escherichia coli UB1005)	MIC [4]	MIC [5]	MIC [12]	other results
CC[C@H](C)[C@H](NC(=O)[C@H](CCCCN)NC(=O)[C@H](Cc1c[nH]c2ccccc12)NC(=O)[C@H](CCCCN)NC(=O)[C@@H](N)Cc1ccc(O)cc1)C(=O)N[C@@H](CCCN=C(N)N)C(=O)N[C@@H](Cc1ccccc1)C(=O)N[C@@H](CCCCN)C(=O)N[C@@H](CCCN=C(N)N)C(=O)O [YKWKIRFKR]	4.1 µM (≈ 5.43 µg/mL)	≥ 32.6 µM	8.2 µM (≈ 10.9 µg/mL)	16.3 µM (≈ 21.6 µg/mL)	4.1 µM (≈ 5.43 µg/mL)	16.3 µM (≈ 21.6 µg/mL)	1 µM (≈ 1.32 µg/mL)	–	–
CC[C@H](C)[C@H](N)C(=O)N[C@@H](CC(C)C)C(=O)N[C@@H](CCCN=C(N)N)C(=O)N[C@@H](Cc1c[nH]c2ccccc12)C(=O)N[C@@H](CCCCN)C(=O)N[C@@H](Cc1c[nH]c2ccccc12)C(=O)N[C@@H](CCCN=C(N)N)C(=O)N[C@@H](Cc1c[nH]c2ccccc12)C(=O)N[C@@H](Cc1c[nH]c2ccccc12)C(=O)N[C@@H](CCCN=C(N)N)C(=O)N[C@@H](Cc1c[nH]c2ccccc12)C(=O)N[C@@H](CCCN=C(N)N)C(=O)N[C@@H](CCCN=C(N)N)C(=O)O [ILRWKWRWWRWRR]	0.7 µM (≈ 1.46 µg/mL)	5.7 µM (≈ 11.9 µg/mL)	2.9 µM (≈ 6.05 µg/mL)	5.7 µM (≈ 11.9 µg/mL)	1.4 µM (≈ 2.92 µg/mL)	2.9 µM (≈ 6.05 µg/mL)	0.7 µM (≈ 1.46 µg/mL)	–	–
CC[C@H](C)[C@H](NC(=O)[C@H](CCCN=C(N)N)NC(=O)[C@H](CCCN=C(N)N)NC(=O)[C@H](CC(C)C)NC(=O)[C@@H](N)CCCN=C(N)N)C(=O)N[C@H](C(=O)N[C@H](C(=O)N[C@H](C(=O)N[C@@H](CCCN=C(N)N)C(=O)N[C@H](C(=O)N[C@@H](CCCN=C(N)N)C(=O)N[C@@H](CCCN=C(N)N)C(N)=O)C(C)C)[C@@H](C)CC)C(C)C)C(C)C [RLRRIVVIRVRR]	5.03 µM (≈ 8 µg/mL)	5.03 µM (≈ 8 µg/mL)	5.03 µM (≈ 8 µg/mL)	19.5 µM (≈ 31 µg/mL)	1.26 µM (≈ 2 µg/mL)	2.51 µM (≈ 4 µg/mL)	1.26 µM (≈ 2 µg/mL)	–	MIC [6]: 0.98 µM (≈ 1.56 µg/mL); MIC [7]: 1.97 µM (≈ 3.13 µg/mL); MIC [8]: 7.85 µM (≈ 12.5 µg/mL); MIC [9]: 3.93 µM (≈ 6.25 µg/mL); MIC [10]: 1.97 µM (≈ 3.13 µg/mL); MIC [11]: 3.93 µM (≈ 6.25 µg/mL)
CC[C@H](C)[C@H](NC(=O)[C@@H]1CCCN1C(=O)[C@H](Cc1c[nH]c2ccccc12)NC(=O)[C@H](CCCN=C(N)N)NC(=O)[C@H](Cc1ccccc1)NC(=O)[C@@H](N)CCCN=C(N)N)C(=O)N[C@@H](CCCN=C(N)N)C(=O)N[C@@H](CCCN=C(N)N)C(=O)N[C@@H](CCCN=C(N)N)C(=O)N1CCC[C@H]1C(=O)N[C@H](C(=O)N[C@@H](CCCN=C(N)N)C(=O)N1CCC[C@H]1C(=O)N1CCC[C@H]1C(=O)N[C@@H](Cc1ccccc1)C(=O)N[C@@H](Cc1ccc(O)cc1)C(=O)N[C@@H](Cc1c[nH]c2ccccc12)C(=O)O)[C@@H](C)CC [RFRWPIRRRPIRPPFYW]	–	–	–	–	–	–	–	–	MIC (Escherichia coli BW25113): 4 µM (≈ 9.6 µg/mL)
CC[C@H](C)[C@H](NC(=O)[C@H](CCCN=C(N)N)NC(=O)[C@@H]1CCCN1C(=O)[C@@H](NC(=O)[C@H](CCCN=C(N)N)NC(=O)[C@@H]1CCCN1C(=O)[C@@H](NC(=O)[C@@H]1CCCN1C(=O)[C@H](Cc1ccccc1)NC(=O)[C@@H]1CCCN1C(=O)[C@@H]1CCCN1C(=O)[C@@H]1CCCN1C(=O)[C@H](Cc1ccccc1)NC(=O)[C@H](CCCN=C(N)N)NC(=O)[C@@H]1CCCN1C(=O)[C@@H](N)CCCN=C(N)N)[C@@H](C)CC)[C@@H](C)CC)C(=O)N1CCC[C@H]1C(=O)O [RPRFPPPFPIPRIPRIP]	–	–	–	–	–	–	–	–	MIC (Escherichia coli BW25113): ≥ 64 µM
CC[C@H](C)[C@H](NC(=O)CN)C(=O)N[C@@H](Cc1ccccc1)C(=O)N[C@@H](CO)C(=O)N[C@@H](CC(C)C)C(=O)N[C@H](C(=O)N[C@@H](CCCCN)C(=O)NCC(=O)N[C@@H](C)C(=O)N[C@@H](C)C(=O)N[C@@H](CCC(N)=O)C(=O)N[C@@H](CC(C)C)C(=O)N[C@H](C(=O)NCC(=O)N[C@@H](CCCCN)C(=O)N[C@H](C(=O)N[C@H](C(=O)N[C@@H](C)C(=O)N[C@@H](CCCCN)C(=O)N[C@@H](CCC(=O)O)C(=O)N[C@@H](C)C(=O)NCC(=O)N[C@@H](CCCCN)C(=O)N[C@H](C(=O)NCC(=O)N[C@@H](CC(C)C)C(=O)N[C@@H](CCC(=O)O)C(=O)N[C@@H](CC(C)C)C(=O)N[C@@H](CCSC)C(=O)N[C@@H](C)C(=O)N[C@H]1CSSC[C@@H](C(=O)O)NC(=O)[C@H](CCC(N)=O)NC(=O)[C@H](CCCCN)NC(=O)[C@H]([C@@H](C)O)NC(=O)[C@H](C(C)C)NC(=O)[C@H](CCCCN)NC1=O)[C@@H](C)O)C(C)C)[C@@H](C)O)[C@@H](C)CC)[C@@H](C)CC [GIFSLIKGAAQLIGKTVAKEAGKTGLELMACKVTKQC]	32.8 µM (≈ 125 µg/mL)	–	–	–	–	–	–	16.4 µM (≈ 62.5 µg/mL)	–
NCCCC[C@H](NC(=O)[C@H](Cc1ccccc1)NC(=O)[C@H](CCCN=C(N)N)NC(=O)[C@H](CCCCN)NC(=O)[C@H](CCCCN)NC(=O)[C@H](CCCN=C(N)N)NC(=O)[C@@H](N)CCCCN)C(=O)N[C@@H](Cc1c[nH]c2ccccc12)C(=O)N[C@@H](Cc1c[nH]c2ccccc12)C(=O)O [KRKKRFKWW]	2.6 µM (≈ 3.54 µg/mL)	≥ 115 µM	20.6 µM (≈ 28.1 µg/mL)	41.2 µM (≈ 56.1 µg/mL)	20.6 µM (≈ 28.1 µg/mL)	10.3 µM (≈ 14 µg/mL)	2.6 µM (≈ 3.54 µg/mL)	–	–
CSCC[C@H](NC(=O)[C@H](CC(C)C)NC(=O)[C@@H]1CCCN1C(=O)CNC(=O)[C@H](CC(C)C)NC(=O)[C@H](CC(C)C)NC(=O)[C@H](C)NC(=O)CNC(=O)[C@H](CC(C)C)NC(=O)[C@@H](N)Cc1ccccc1)C(=O)N[C@@H](CC(N)=O)C(=O)N[C@@H](CC(C)C)C(=O)N[C@@H](CC(C)C)C(=O)N[C@@H](CCC(N)=O)C(N)=O [FLGALLGPLMNLLQ]	> 160 µM	–	–	–	–	–	–	≥ 160 µM	–
CSCC[C@H](NC(=O)[C@H](Cc1ccccc1)NC(=O)[C@H](CCCCN)NC(=O)CNC(=O)[C@H](C)NC(=O)[C@H](C)NC(=O)[C@H](CCCCN)NC(=O)[C@H](CC(C)C)NC(=O)CNC(=O)[C@H](Cc1ccccc1)NC(=O)[C@H](CCCCN)NC(=O)[C@H](CC(C)C)NC(=O)[C@H](C)NC(=O)[C@H](CCCCN)NC(=O)CNC(=O)[C@H](CC(C)C)NC(=O)[C@H](CC(C)C)NC(=O)[C@H](CO)NC(=O)CNC(=O)[C@H](CC(C)C)NC(=O)CN)C(=O)NCC(=O)NCC(=O)N[C@@H](CCC(=O)O)C(=O)N1CCC[C@H]1C(=O)N[C@@H](CCC(N)=O)C(=O)N[C@@H](CCC(N)=O)C(=O)O [GLGSLLGKALKFGLKAAGKFMGGEPQQ]	25 µM (≈ 67.6 µg/mL)	–	–	–	–	–	–	25 µM (≈ 67.6 µg/mL)	–
CC[C@H](C)[C@H](NC(=O)[C@@H]1CCCN1C(=O)[C@H](CCCN=C(N)N)NC(=O)[C@H](CCCN=C(N)N)NC(=O)[C@H](CCCN=C(N)N)NC(=O)[C@@H](NC(=O)[C@@H]1CCCN1C(=O)[C@@H]1CCCN1C(=O)[C@H](CCCN=C(N)N)NC(=O)[C@H](Cc1ccccc1)NC(=O)[C@@H](N)CCCN=C(N)N)[C@@H](C)CC)C(=O)N[C@@H](CCCN=C(N)N)C(=O)N1CCC[C@H]1C(=O)N1CCC[C@H]1C(=O)N[C@@H](Cc1ccccc1)C(=O)N[C@@H](Cc1ccc(O)cc1)C(=O)N1CCC[C@H]1C(=O)O [RFRPPIRRRPIRPPFYP]	–	–	–	–	–	–	–	–	MIC (Escherichia coli BW25113): 8 µM (≈ 17.8 µg/mL)
CC[C@H](C)[C@H](NC(=O)[C@H](CCCN=C(N)N)NC(=O)[C@H](C)NC(=O)[C@H](CC(C)C)NC(=O)CN)C(=O)N[C@H](C(=O)N[C@H](C(=O)N[C@H](C(=O)N[C@@H](CCCN=C(N)N)C(=O)N[C@H](C(=O)N[C@@H](C)C(=O)N[C@@H](CCCN=C(N)N)C(N)=O)C(C)C)[C@@H](C)CC)C(C)C)C(C)C [GLARIVVIRVAR]	47.6 µM (≈ 63 µg/mL)	≥ 94.5 µM	≥ 47.6 µM	94.5 µM (≈ 125 µg/mL)	12.1 µM (≈ 16 µg/mL)	23.4 µM (≈ 31 µg/mL)	12.1 µM (≈ 16 µg/mL)	–	–
CC[C@H](C)[C@H](NC(=O)CN)C(=O)NCC(=O)N[C@@H](CCCCN)C(=O)N[C@@H](Cc1ccccc1)C(=O)N[C@@H](CC(C)C)C(=O)N[C@@H](Cc1cnc[nH]1)C(=O)N[C@@H](CO)C(=O)N[C@@H](C)C(=O)NCC(=O)N[C@@H](CCCCN)C(=O)N[C@@H](Cc1ccccc1)C(=O)NCC(=O)N[C@@H](CCCCN)C(=O)N[C@@H](C)C(=O)N[C@@H](Cc1ccccc1)C(=O)N[C@@H](CC(C)C)C(=O)NCC(=O)N[C@@H](CCC(=O)O)C(=O)N[C@H](C(=O)N[C@@H](CCSC)C(=O)N[C@@H](CCCCN)C(=O)N[C@@H](CO)C(=O)O)C(C)C [GIGKFLHSAGKFGKAFLGEVMKS]	> 200 µM	–	–	–	–	–	–	≥ 50 µM	MIC [13]: ≥ 100 µM; MIC [14]: 50 µM (≈ 120 µg/mL)

Reference: DBAASP
